Experimental findings from patent publication US20040156869A1, “2-substituted quinazolin-4-ylamine analogues” (Neurogen Corporation, priority 2002, published 2004) are described below.

Structures are written as SMILES. A value given as a limit tells only on which side of the number the result lay.

In this test the target is human capsaicin receptor (VR1) (Homo sapiens, UniProt Q8NER1). Put plainly: Capsaicin receptor binding assay ([3H]RTX competition, VR1-transfected HEK293 membranes).
Sequence of human capsaicin receptor (VR1) (Q8NER1 whole entry): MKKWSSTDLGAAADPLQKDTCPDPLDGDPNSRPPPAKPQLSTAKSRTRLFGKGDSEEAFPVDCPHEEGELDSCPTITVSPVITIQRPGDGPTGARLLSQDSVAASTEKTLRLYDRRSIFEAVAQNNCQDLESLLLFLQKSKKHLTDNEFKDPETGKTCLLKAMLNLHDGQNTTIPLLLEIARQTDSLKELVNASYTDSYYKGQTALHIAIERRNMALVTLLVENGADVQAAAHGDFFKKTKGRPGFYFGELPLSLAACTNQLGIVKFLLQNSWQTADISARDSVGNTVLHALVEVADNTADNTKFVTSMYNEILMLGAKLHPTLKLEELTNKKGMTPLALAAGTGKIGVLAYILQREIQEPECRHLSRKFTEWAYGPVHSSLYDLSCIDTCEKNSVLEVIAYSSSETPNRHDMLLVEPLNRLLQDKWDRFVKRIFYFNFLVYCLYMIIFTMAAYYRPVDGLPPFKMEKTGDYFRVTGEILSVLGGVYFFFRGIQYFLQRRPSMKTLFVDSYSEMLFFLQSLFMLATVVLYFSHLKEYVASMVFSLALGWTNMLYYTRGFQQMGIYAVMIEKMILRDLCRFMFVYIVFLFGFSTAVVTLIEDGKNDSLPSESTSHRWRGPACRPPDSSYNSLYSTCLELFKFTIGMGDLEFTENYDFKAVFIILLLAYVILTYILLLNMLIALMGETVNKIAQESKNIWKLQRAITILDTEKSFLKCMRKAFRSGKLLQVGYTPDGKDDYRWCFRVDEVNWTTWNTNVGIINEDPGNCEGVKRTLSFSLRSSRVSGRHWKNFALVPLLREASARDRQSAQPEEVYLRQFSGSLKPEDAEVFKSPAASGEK
The term Ki denotes the dissociation constant of the complex between target and ligand, obtained from inhibition or displacement. `CCCS(=O)(=O)c1ccc(Nc2nc(CN3C[C@@H](C)O[C@@H](C)C3)nc3cc(-c4ncccc4C(F)(F)F)cnc23)cc1` [Compound 594, [2-(2,6-Dimethyl-morpholin-4-ylmethyl)-7-(3-trifluoromethyl-pyridin-2-yl)-pyrido[3,2-d]pyrimidin-4-yl]-[4-(propane-1-sulfonyl)-phenyl]-amine (cis)] had an inhibition constant (Ki) of under 1000 nM.

In the case of `CC(C)S(=O)(=O)c1ccc(Nc2nc(CN3C[C@@H](C)O[C@@H](C)C3)nc3cc(-c4ncccc4C(F)(F)F)cnc23)cc1` [Compound 595, [2-(2,6-Dimethyl-morpholin-4-ylmethyl)-7-(3-trifluoromethyl-pyridin-2-yl)-pyrido[3,2-d]pyrimidin-4-yl]-[4-(propane-2-sulfonyl)-phenyl]-amine (cis)], the inhibition constant Ki is under 1000 nM.

The compound `C[C@@H]1CN(Cc2nc(Nc3ccc(C(F)(F)F)cc3)c3ccc(-c4ncccc4Cl)cc3n2)C[C@H](C)O1` [Compound 598, [7-(3-Chloro-pyridin-2-yl)-2-(2,6-dimethyl-morpholin-4-ylmethyl)-quinazolin-4-yl]-(4-trifluoromethyl-phenyl)-amine (cis)] gave a Ki of under 1000 nM.

For the compound `C[C@@H]1CN(Cc2nc(Nc3ccc(C(F)(F)F)nc3)c3ccc(-c4ncccc4Cl)cc3n2)C[C@H](C)O1` [Compound 599, [7-(3-Chloro-pyridin-2-yl)-2-(2,6-dimethyl-morpholin-4-ylmethyl)-quinazolin-4-yl]-(6-trifluoromethyl-pyridin-3-yl)-amine (cis)], the inhibition constant (Ki) was under 1000 nM.

As to `C[C@@H]1CN(Cc2nc(Nc3ccc(S(=O)(=O)C(F)(F)F)cc3)c3ccc(-c4ncccc4Cl)cc3n2)C[C@H](C)O1` [Compound 602, [7-(3-Chloro-pyridin-2-yl)-2-(2,6-dimethyl-morpholin-4-ylmethyl)-quinazolin-4-yl]-(4-trifluoromethanesulfonyl-phenyl)-amine (cis)], the inhibitory constant (Ki) is under 1000 nM.

Take `Cc1cccnc1-c1cnc2c(Nc3ccc(C(F)(F)F)cc3)nc(CN3C[C@@H](C)O[C@@H](C)C3)nc2c1` [Compound 603, [2-(2,6-Dimethyl-morpholin-4-ylmethyl)-7-(3-methyl-pyridin-2-yl)-pyrido[3,2-d]pyrimidin-4-yl]-(4-trifluoromethyl-phenyl)-amine (cis)]: the Ki is under 1000 nM.

`C[C@H]1CN(Cc2nc(Nc3ccc(C(F)(F)F)cc3)c3ccc(-c4ncccc4Cl)cc3n2)C[C@H](C)O1` [Compound 604, (S,S)-[7-(3-Chloro-pyridin-2-yl)-2-(2,6-dimethyl-morpholin-4-ylmethyl)-quinazolin-4-yl]-(4-trifluoromethyl-phenyl)-amine] gave a Ki of under 1000 nM.

Consider `C[C@H]1CN(Cc2nc(Nc3ccc(C(C)(C)C)nc3)c3ccc(-c4ncccc4Cl)cc3n2)C[C@H](C)O1` [Compound 605, (S,S)-(6-tert-Butyl-pyridin-3-yl)-[7-(3-chloro-pyridin-2-yl)-2-(2,6-dimethyl-morpholin-4-ylmethyl)-quinazolin-4-yl]-amine], for which the inhibitory constant (Ki) was under 1000 nM.

`C[C@@H]1CN(Cc2nc(Nc3ccc(C(F)(F)F)cc3)c3ccc(-c4ncccc4Cl)cc3n2)C[C@@H](C)O1` [Compound 606, (R,R)-[7-(3-Chloro-pyridin-2-yl)-2-(2,6-dimethyl-morpholin-4-ylmethyl)-quinazolin-4-yl]-(4-trifluoromethyl-phenyl)-amine] showed a Ki of under 1000 nM.

`C[C@@H]1CN(Cc2nc(Nc3ccc(C(C)(C)C)nc3)c3ccc(-c4ncccc4Cl)cc3n2)C[C@@H](C)O1` [Compound 607, (R,R)-(6-tert-Butyl-pyridin-3-yl)-[7-(3-chloro-pyridin-2-yl)-2-(2,6-dimethyl-morpholin-4-ylmethyl)-quinazolin-4-yl]-amine] yielded a Ki of under 1000 nM.

Compound `C[C@H]1CN(Cc2nc(Nc3ccc(C(F)(F)F)nc3)c3ccc(-c4ncccc4Cl)cc3n2)C[C@H](C)O1` [Compound 608, (S,S)-[7-(3-Chloro-pyridin-2-yl)-2-(2,6-dimethyl-morpholin-4-ylmethyl)-quinazolin-4-yl]-(6-trifluoromethyl-pyridin-3-yl)-amine] had a Ki of under 1000 nM.

The compound `C[C@H]1CN(Cc2nc(Nc3ccc(C(C)(C)C)nc3)c3ccc(-c4ncccc4C(F)(F)F)cc3n2)C[C@H](C)O1` [Compound 609, (S,S)-(6-tert-Butyl-pyridin-3-yl)-[2-(2,6-dimethyl-morpholin-4-ylmethyl)-7-(3-trifluoromethyl-pyridin-2-yl)-quinazolin-4-yl]-amine] registered an inhibition constant Ki of under 1000 nM.

With `C[C@@H]1CN(Cc2nc(Nc3ccc(C(F)(F)F)nc3)c3ccc(-c4ncccc4Cl)cc3n2)C[C@@H](C)O1` [Compound 610, (R,R)-[7-(3-Chloro-pyridin-2-yl)-2-(2,6-dimethyl-morpholin-4-ylmethyl)-quinazolin-4-yl]-(6-trifluoromethyl-pyridin-3-yl)-amine], the inhibition constant Ki was under 1000 nM.

`C[C@@H]1CN(Cc2nc(Nc3ccc(C(C)(C)C)nc3)c3ccc(-c4ncccc4C(F)(F)F)cc3n2)C[C@@H](C)O1` [Compound 611, (R,R)-(6-tert-Butyl-pyridin-3-yl)-[2-(2,6-dimethyl-morpholin-4-ylmethyl)-7-(3-trifluoromethyl-pyridin-2-yl)-quinazolin-4-yl]-amine] registered a Ki of under 1000 nM.

`C[C@@H]1CN(Cc2nc(Nc3ccc(C(F)(F)F)cc3)c3cnc(-c4ccccc4C(F)(F)F)cc3n2)C[C@H](C)O1` [Compound 612, [2-(2,6-Dimethyl-morpholin-4-ylmethyl)-7-(2-trifluoromethyl-phenyl)-pyrido[4,3-d]pyrimidin-4-yl]-(4-trifluoromethyl-phenyl)-amine (cis)] gave a Ki of under 1000 nM.

Compound `CC(C)c1ccc(Nc2nc(CN3C[C@@H](C)O[C@@H](C)C3)nc3cc(-c4ncccc4C(F)(F)F)cnc23)cc1` [Compound 613, [2-(2,6-Dimethyl-morpholin-4-ylmethyl)-7-(3-trifluoromethyl-pyridin-2-yl)-pyrido[3,2-d]pyrimidin-4-yl]-(4-isopropyl-phenyl)-amine (cis)] came in with an inhibition constant (Ki) of under 1000 nM.

On to `C[C@@H]1CN(Cc2nc(Nc3ccc(C(C)(C)C)cc3)c3cnc(-c4ccccc4C(F)(F)F)cc3n2)C[C@H](C)O1` [Compound 614, (4-tert-Butyl-phenyl)-[2-(2,6-dimethyl-morpholin-4-ylmethyl)-7-(2-trifluoromethyl-phenyl)-pyrido[4,3-d]pyrimidin-4-yl]-amine (cis)], for which the Ki is under 1000 nM.

Compound `C[C@@H]1CN(Cc2nc(Nc3ccc(C(F)(F)F)cc3)c3ncc(-c4ncccc4Cl)cc3n2)C[C@H](C)O1` [Compound 615, [7-(3-Chloro-pyridin-2-yl)-2-(2,6-dimethyl-morpholin-4-ylmethyl)-pyrido[3,2-d]pyrimidin-4-yl]-(4-trifluoromethyl-phenyl)-amine (cis)] came in with a Ki of under 1000 nM.

`C[C@@H]1CN(Cc2nc(Nc3ccc(C(F)(F)F)nc3)c3ncc(-c4ncccc4Cl)cc3n2)C[C@H](C)O1` [Compound 616, [7-(3-Chloro-pyridin-2-yl)-2-(2,6-dimethyl-morpholin-4-ylmethyl)-pyrido[3,2-d]pyrimidin-4-yl]-(6-trifluoromethyl-pyridin-3-yl)-amine (cis)] showed an inhibitory constant (Ki) of under 1000 nM.

Regarding `C[C@@H]1CN(Cc2nc(Nc3ccc(S(=O)(=O)C(F)(F)F)cc3)c3ncc(-c4ncccc4Cl)cc3n2)C[C@H](C)O1` [Compound 617, [7-(3-Chloro-pyridin-2-yl)-2-(2,6-dimethyl-morpholin-4-ylmethyl)-pyrido[3,2-d]pyrimidin-4-yl]-(4-trifluoromethanesulfonyl-phenyl)-amine (cis)], the Ki was under 1000 nM.
